Values joined by “and” are separate entries in the source; they are usually repeats but may differ in a detail not shown here. Equal values may be shown once.
Assay: Anticancer human tumor 997537-175-T-J1-PDC patient-derived colon adenocarcinoma cell line growth inhibition [POLQ]
Conditions: 997537-175-T-J1-PDC complex spheroid viability, combination with POLQ inhibitors; for viability, T/C: stronger effect = lower value
Method in brief: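 Three-cell-type spheroids modelling solid tumor plus stroma served as the readout system; POL inhibitors were tested individually and in combination, concentration ranges set by clinical Cmax where known.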
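Also: luminescence signal used as a surrogate for viable cells; spheroids exposed to drugs for seven days before readout.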

Work on `COc1cc2cc(C(=O)CCC(=O)O)sc2cc1OC` + Nc1ccc(C#CCN(C(=O)Cc2ncc(C(F)(F)F)cc2C(F)(F)F)c2ccc(F)cc2)nn1 yielded an IC50 (curve of first compound, second compound 0.0316 µM) of over 10 µM, an IC50 (curve of first compound, second compound 0.1 µM) of over 10 µM and an IC50 (curve of first compound, second compound 0.316 µM) of over 10 µM. The IC50 (curve of first compound, second compound 1 µM) was over 10 µM, the IC50 (curve of first compound, second compound 3.16 µM) was over 10 µM and the IC50 (curve of first compound, second compound 10 µM) was over 10 µM. It also gave a viability, T/C (second compound 0.0316 µM, first compound 0.0316 µM) of 107%, a viability, T/C (second compound 0.0316 µM, first compound 0.1 µM) of 107% and a viability, T/C (second compound 0.0316 µM, first compound 0.316 µM) of 109%. The viability, T/C (second compound 0.0316 µM, first compound 1 µM) was 99.7%, the viability, T/C (second compound 0.0316 µM, first compound 3.16 µM) was 96.8% and the viability, T/C (second compound 0.0316 µM, first compound 10 µM) was 96.7%. For the same molecule, the viability, T/C (second compound 0.1 µM, first compound 0.0316 µM) was 91.2%, the viability, T/C (second compound 0.1 µM, first compound 0.1 µM) was 102% and the viability, T/C (second compound 0.1 µM, first compound 0.316 µM) was 98.2%. It also gave a viability, T/C (second compound 0.1 µM, first compound 1 µM) of 108%, a viability, T/C (second compound 0.1 µM, first compound 3.16 µM) of 101% and a viability, T/C (second compound 0.1 µM, first compound 10 µM) of 105%. The viability, T/C (second compound 0.316 µM, first compound 0.0316 µM) was 99.1%, the viability, T/C (second compound 0.316 µM, first compound 0.1 µM) was 105% and the viability, T/C (second compound 0.316 µM, first compound 0.316 µM) was 109%. The viability, T/C (second compound 0.316 µM, first compound 1 µM) was 98%, the viability, T/C (second compound 0.316 µM, first compound 3.16 µM) was 91.8% and the viability, T/C (second compound 0.316 µM, first compound 10 µM) was 95.4%. The viability, T/C (second compound 1 µM, first compound 0.0316 µM) was 94.4%, the viability, T/C (second compound 1 µM, first compound 0.1 µM) was 89.5% and the viability, T/C (second compound 1 µM, first compound 0.316 µM) was 82%. For the same molecule, the viability, T/C (second compound 1 µM, first compound 1 µM) was 105%, the viability, T/C (second compound 1 µM, first compound 3.16 µM) was 96.5% and the viability, T/C (second compound 1 µM, first compound 10 µM) was 89.9%. It also gave a viability, T/C (second compound 3.16 µM, first compound 0.0316 µM) of 105%, a viability, T/C (second compound 3.16 µM, first compound 0.1 µM) of 101% and a viability, T/C (second compound 3.16 µM, first compound 0.316 µM) of 97.5%. It also gave a viability, T/C (second compound 3.16 µM, first compound 1 µM) of 86.1%, a viability, T/C (second compound 3.16 µM, first compound 3.16 µM) of 100% and a viability, T/C (second compound 3.16 µM, first compound 10 µM) of 92.5%. It also gave a viability, T/C (second compound 10 µM, first compound 0.0316 µM) of 101%, a viability, T/C (second compound 10 µM, first compound 0.1 µM) of 91.4% and a viability, T/C (second compound 10 µM, first compound 0.316 µM) of 106%. It also gave a viability, T/C (second compound 10 µM, first compound 1 µM) of 111%, a viability, T/C (second compound 10 µM, first compound 3.16 µM) of 101% and a viability, T/C (second compound 10 µM, first compound 10 µM) of 107%.
For `CCc1c2c(nc3ccc(O)cc13)-c1cc3c(c(=O)n1C2)COC(=O)[C@]3(O)CC`, the viability, T/C (compound 0.00316 µM) was 68.9% and 81% and 97.3%, the viability, T/C (compound 0.01 µM) was 63.4% and 64.7% and 67% and the viability, T/C (compound 0.0316 µM) was 35.3% and 40.2% and 35.2%. The viability, T/C (compound 0.1 µM) was 19.1% and 17.6% and 15.7%, the viability, T/C (compound 0.316 µM) was 5.98% and 6.37% and 8.27% and the viability, T/C (compound 1 µM) was 5.57% and 4.62% and 6.01%. The IC50 (curve of compound) was 0.0172 µM and 0.0199 µM and 0.0184 µM.
With `COC1C(OC(N)=O)C(O)C(Oc2ccc3c(O)c(NC(=O)c4ccc(O)c(CC=C(C)C)c4)c(=O)oc3c2C)OC1(C)C` (stereo unspecified) the viability, T/C (compound 0.1 µM) was 97.2% [middle of 13 runs], the viability, T/C (compound 0.316 µM) was 97.4% [middle of 13 runs] and the viability, T/C (compound 1 µM) was 95.6% [middle of 13 runs]. The IC50 (compound alone, run of 11/27/2023) was over 10 µM.
With `Cn1ncnc1[C@H]1c2n[nH]c(=O)c3cc(F)cc(c23)N[C@@H]1c1ccc(F)cc1` the viability, T/C (compound 0.000316 µM) was 93.6% and 104% and 95.7%, the viability, T/C (compound 0.001 µM) was 114% and 96.4% and 80.4% and the viability, T/C (compound 0.00316 µM) was 80.6% and 115% and 106%. For the same molecule, the viability, T/C (compound 0.01 µM) was 110% and 98.3% and 88.3%, the viability, T/C (compound 0.0316 µM) was 104% and 106% and 100% and the viability, T/C (compound 0.1 µM) was 94.7% and 98.2% and 90%. It also gave an IC50 (curve of compound) of over 0.1 µM.
In the case of `CCc1cc2c(N3CCc4c(cc(Cn5ccnc5)cc4-c4cn(C)nc4C(F)(F)F)C3=O)cc(C)nc2c(OC)n1`, the viability, T/C (compound 0.0316 µM) is reported as 90.5% and 98.7% and 107%, the viability, T/C (compound 0.1 µM) is reported as 95.7% and 82% and 107% and the viability, T/C (compound 0.316 µM) is reported as 90.7% and 71.5% and 94.3%. The viability, T/C (compound 1 µM) was 78.7% and 91.3% and 92.2%, the viability, T/C (compound 3.16 µM) was 69.9% and 86.2% and 67.7% and the viability, T/C (compound 10 µM) was 58% and 61.9% and 41.5%. For the same molecule, the IC50 (curve of compound) was > 10 µM and 6.97 µM.
For `COc1cc(C2c3cc4c(cc3C(OC3OC5COC(C)OC5C(O)C3O)C3COC(=O)C23)OCO4)cc(OC)c1O` (stereo unspecified), the viability, T/C (compound 0.0316 µM) was 81.2% and 92.1% and 89.8%, the viability, T/C (compound 0.1 µM) was 90% and 102% and 100% and the viability, T/C (compound 0.316 µM) was 86.5% and 100% and 114%. For the same molecule, the viability, T/C (compound 1 µM) was 102% and 92.9% and 99.7%, the viability, T/C (compound 3.16 µM) was 92.7% and 81% and 88.9% and the viability, T/C (compound 10 µM) was 76.3% and 68.8% and 51.7%. It also gave an IC50 (curve of compound) of over 10 µM.
With `COc1cc2cc(C(=O)CCC(=O)O)sc2cc1OC` the viability, T/C (compound 0.0316 µM) was 102% and 105% and 95.7%, the viability, T/C (compound 0.1 µM) was 99% and 93.1% and 94.9% and the viability, T/C (compound 0.316 µM) was 85.6% and 113% and 104%. For the same molecule, the viability, T/C (compound 1 µM) was 107% and 89.6% and 100%, the viability, T/C (compound 3.16 µM) was 106% and 100% and 91.6% and the viability, T/C (compound 10 µM) was 98.2% and 83.3% and 99.8%. The IC50 (curve of compound) was over 10 µM.

Source: PubChem BioAssay AID1963825 (Molecular Pharmacology Branch, DTP, NCI, 2024)
